Measured values as given in patent publication US20240208912A1 (Mirati Therapeutics, Inc., priority 2021, published 2024).
Where two headings read alike, the source gives them in different places.

How the values were obtained:
PRMT5/MEP50 complex = biological target: T1, PRMT5/MEP50 complex (Homo sapiens, UniProt O14744); assay: PRMT5:MEP50 HotSpot Assay (full-length histone H2A substrate, plus and minus MTA); format: biochemical; conditions: IC50 + 2 μM MTA, in the presence of 2 μM MTA
T1 construct: purchased Reaction Biology Corporation
Summary of the method: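 Radiometric HotSpot format using recombinant full-length histone H2A as substrate, run with and without MTA. Reactions were stopped and spotted onto filter paper. Tritiated H2A was quantified by scintillation counting.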

[1] = system: HCT116 homozygous MTAP knockout cells; assay: Proliferation assay (CellTiter-Glo, 10 days) in HCT116 homozygous MTAP knockout cells; format: cell-based; conditions: CellTiter-Glo after 10 days of treatment, read-out: Proliferation IC50 (nM) HCT116 MTAP_KO
Protocol: HCT116 cells were genetically engineered to knock out the function of both MTAP alleles using a CRISPR/Cas9 system and an sgRNA targeting the MTAP gene. Following Cas9/MTAP sgRNA transduction, clones were screened to confirm that each allele of the MTAP gene had been inactivated (i.e., homozygous MTAP knock out) creating an MTAP-deficient cell.
Control samples were analyzed in parallel.
Briefly, on Day 0, 250 HCT116 parental or HCT116 homozygous MTAP knockout cell were seeded in 96 well plates in McCoy's 5A supplemented with […] fetal bovine serum and pen/strep and the cells were incubated overnight at 37° C. plus 5% CO2.
The following day, cells were treated with DMSO vehicle control or a dose response of PRMT5 inhibitors and incubated at 37 C plus 5% CO2 for five days. On Day 6, the cells were trypsinized and split 1:10 into new 96-well plates with fresh medium containing the same concentration of PRMT5 inhibitor and incubated for an additional 5 days at 37° C. plus 5% CO^2.
On Day 11, the viability of the cells was measured using a CTG assay kit (CellTiter-Glo; Promega cat.no G7573) in accordance with the manufacturer's instructions. The IC50 values for each compound after 10 days of treatment were calculated using GraphPad PRISM software.

T1 sequence (O14744 2-637 limits assumed): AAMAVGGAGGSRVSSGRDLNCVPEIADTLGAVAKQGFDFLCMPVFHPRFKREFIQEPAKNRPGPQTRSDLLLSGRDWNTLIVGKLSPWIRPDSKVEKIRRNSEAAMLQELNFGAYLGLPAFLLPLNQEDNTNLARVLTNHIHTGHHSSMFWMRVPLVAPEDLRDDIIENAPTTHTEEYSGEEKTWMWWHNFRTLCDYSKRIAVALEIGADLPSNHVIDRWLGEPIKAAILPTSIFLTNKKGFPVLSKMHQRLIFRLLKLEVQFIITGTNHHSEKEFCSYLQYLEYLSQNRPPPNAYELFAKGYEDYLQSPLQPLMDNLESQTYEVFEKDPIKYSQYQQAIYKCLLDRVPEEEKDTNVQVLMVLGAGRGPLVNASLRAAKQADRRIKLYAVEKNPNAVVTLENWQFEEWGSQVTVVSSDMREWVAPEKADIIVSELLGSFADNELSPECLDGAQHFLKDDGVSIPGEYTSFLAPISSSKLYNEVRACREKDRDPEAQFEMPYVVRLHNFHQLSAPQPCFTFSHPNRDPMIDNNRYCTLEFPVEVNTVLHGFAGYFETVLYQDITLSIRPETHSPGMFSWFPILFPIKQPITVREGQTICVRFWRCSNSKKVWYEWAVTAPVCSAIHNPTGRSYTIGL
T1 sequence (Q9BQA1 2-342 partner limits assumed): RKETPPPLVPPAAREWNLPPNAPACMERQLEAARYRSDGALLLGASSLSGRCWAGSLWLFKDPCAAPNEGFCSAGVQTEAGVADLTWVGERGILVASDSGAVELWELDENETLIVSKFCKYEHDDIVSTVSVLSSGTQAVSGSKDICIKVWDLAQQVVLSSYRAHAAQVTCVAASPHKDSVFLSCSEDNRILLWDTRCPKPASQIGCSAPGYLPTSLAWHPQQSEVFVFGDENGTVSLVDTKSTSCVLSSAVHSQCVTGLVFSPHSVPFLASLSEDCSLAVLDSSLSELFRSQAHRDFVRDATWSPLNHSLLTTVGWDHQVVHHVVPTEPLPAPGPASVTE

Cn1ncc(-c2ccc3c(=O)[nH]nc(CN)c3c2)c1-c1c(C#N)cc2ccccc2c1F (single isomer, unassigned) [Example 16-54, (M)-3-[4-[4-(aminomethyl)-1-oxo-2H-phthalazin-6-yl]-2-methyl-pyrazol-3-yl]-4-fluoro-naphthalene-2-carbonitrile]
IC50 (PRMT5/MEP50 complex): 9.19 nM
IC50 [1]: 82 nM

Cc1c(F)c(-c2c(-c3cc(Cl)c4c(=O)[nH]nc(CN)c4c3)cnn2C)c(C#N)c2ccccc12 (single isomer, unassigned) [Example 16-59, (P)-2-[4-[4-(aminomethyl)-8-chloro-1-oxo-2H-phthalazin-6-yl]-2-methyl-pyrazol-3-yl]-3-fluoro-4-methyl-naphthalene-1-carbonitrile]
IC50 (PRMT5/MEP50 complex): 318 nM
IC50 [1]: 215 nM

Cn1ncc(-c2ccc3c(=O)[nH]nc(C4CCN4)c3c2)c1-c1sc2ccccc2c1C#N (centres unmarked) [Example 9-11, 2-(4-(4-(azetidin-2-yl)-1-oxo-1,2-dihydrophthalazin-6-yl)-1-methyl-1H-pyrazol-5-yl)benzo[b]thiophene-3-carbonitrile]
IC50 (PRMT5/MEP50 complex): 1440 nM
IC50 ([1]; Homo sapiens, HCT-116, 240 h): 2370 nM

COc1cc(F)c(-c2c(-c3ccc4c(=O)[nH]nc(CN)c4c3)cnn2C)c(C#N)c1OC1CC1 (atropisomer, axis not shown; (M)) [Example 16-71, (M)-2-[4-[4-(aminomethyl)-1-oxo-2H-phthalazin-6-yl]-2-methyl-pyrazol-3-yl]-6-(cyclopropoxy)-3-fluoro-5-methoxy-benzonitrile]
IC50 (PRMT5/MEP50 complex): 142 nM
IC50 [1]: 50 nM

Cn1ncc(-c2ccc3c(=O)[nH]nc(CN)c3c2)c1-c1c(F)ccc(CC2CC2)c1C#N (single isomer, unassigned) [Example 16-29, (P)-2-(4-(4-(aminomethyl)-1-oxo-1,2-dihydrophthalazin-6-yl)-1-methyl-1H-pyrazol-5-yl)-6-(cyclopropylmethyl)-3-fluorobenzonitrile]
IC50 (PRMT5/MEP50 complex): 111 nM
IC50 [1]: 292 nM

Cn1ncc(-c2ccc3c(=O)[nH]nc(CN)c3c2)c1-c1c(C#N)cc2cccnc2c1Cl (atropisomer, axis not shown; (P)) [Example 16-83, (P)-7-(4-(4-(aminomethyl)-1-oxo-1,2-dihydrophthalazin-6-yl)-1-methyl-1H-pyrazol-5-yl)-8-chloroquinoline-6-carbonitrile]
IC50 (PRMT5/MEP50 complex): 446 nM
IC50 [1]: 1690 nM

Cn1ncc(-c2ccc3c(=O)[nH]nc(CN)c3c2)c1-c1c(F)cc2c(c1C#N)OCCC2 (atropisomer, axis not shown; (P)) [Example 16-37, (P)-7-[4-[4-(aminomethyl)-1-oxo-2H-phthalazin-6-yl]-2-methyl-pyrazol-3-yl]-6-fluoro-chromane-8-carbonitrile]
IC50 (PRMT5/MEP50 complex): 102 nM
IC50 [1]: 216 nM

Cc1cc(OC2CC2)c(C#N)c(-c2c(-c3cc(Cl)c4c(=O)[nH]nc(CN)c4c3)cnn2C)c1F (single isomer, unassigned) [Example 16-25, (P)-2-[4-[4-(aminomethyl)-8-chloro-1-oxo-2H-phthalazin-6-yl]-2-methyl-pyrazol-3-yl]-6-(cyclopropoxy)-3-fluoro-4-methyl-benzonitrile]
IC50 (PRMT5/MEP50 complex): 964 nM
IC50 [1]: 664 nM

Cn1ncc(-c2ccc3c(=O)[nH]nc(C4(N)CCC4)c3c2)c1-c1sc2ccccc2c1C#N [Example 9-10, 2-(4-(4-(1-aminocyclobutyl)-1-oxo-1,2-dihydrophthalazin-6-yl)-1-methyl-1H-pyrazol-5-yl) benzo[b]thiophene-3-carbonitrile]
IC50 (PRMT5/MEP50 complex): > 10000 nM
IC50 ([1]; Homo sapiens, HCT-116, 240 h): 10000 nM

Cc1cc(OC2CC2)c(C#N)c(-c2c(-c3ccc4c(=O)[nH]nc(CN)c4c3)cnn2C)c1F (single isomer, unassigned) [Example 16-20, (M)-2-[4-[4-(aminomethyl)-1-oxo-2H-phthalazin-6-yl]-2-methyl-pyrazol-3-yl]-6-(cyclopropoxy)-3-fluoro-4-methyl-benzonitrile]
IC50 (PRMT5/MEP50 complex): 36 nM
IC50 [1]: 13 nM

C[C@H]1C[C@@H]1Oc1ccc(F)c(-c2c(-c3ccc4c(=O)[nH]nc(CN)c4c3)cnn2C)c1C#N (single isomer, unassigned) [Example 16-68]
IC50 (PRMT5/MEP50 complex): 52.4 nM
IC50 [1]: 41 nM

Cc1cnc2c(C#N)c(-c3c(-c4ccc5c(=O)[nH]nc(CN)c5c4)cnn3C)c(F)c(C)c2c1 (atropisomer, axis not shown; (M)) [Example 16-94, (M)-7-(4-(4-(aminomethyl)-1-oxo-1,2-dihydrophthalazin-6-yl)-1-methyl-1H-pyrazol-5-yl)-6-fluoro-3,5-dimethylquinoline-8-carbonitrile]
IC50 (PRMT5/MEP50 complex): 1140 nM
IC50 [1]: 231 nM

CCOc1cc(-c2cnn(C)c2-c2c(F)ccc(OC3CC3)c2C#N)cc2c(CN)n[nH]c(=O)c12 (atropisomer, axis not shown; (M)) [Example 16-74, (M)-2-[4-[4-(aminomethyl)-8-ethoxy-1-oxo-2H-phthalazin-6-yl]-2-methyl-pyrazol-3-yl]-6-(cyclopropoxy)-3-fluoro-benzonitrile]
IC50 (PRMT5/MEP50 complex): 346 nM
IC50 [1]: 158 nM

Cn1ncc(-c2ccc3c(=O)[nH]nc(CN)c3c2)c1-c1c(C#N)cc2ccccc2c1F (single isomer, unassigned) [Example 16-53, (P)-3-[4-[4-(aminomethyl)-1-oxo-2H-phthalazin-6-yl]-2-methyl-pyrazol-3-yl]-4-fluoro-naphthalene-2-carbonitrile]
IC50 (PRMT5/MEP50 complex): 157 nM
IC50 [1]: 752 nM

Cn1ncc(-c2ccc3c(=O)[nH]nc(CN)c3c2)c1-c1c(C#N)cc2ncccc2c1F (single isomer, unassigned) [Example 16-92, (M)-6-[4-[4-(aminomethyl)-1-oxo-2H-phthalazin-6-yl]-2-methyl-pyrazol-3-yl]-5-fluoro-quinoline-7-carbonitrile]
IC50 (PRMT5/MEP50 complex): 2040 nM
IC50 [1]: 403 nM

Cc1cc(-c2cnn(C)c2-c2c(F)cc3ncc(Cl)cc3c2C#N)cc2c(CN)n[nH]c(=O)c12 (single isomer, unassigned) [Example 16-49, (P)-6-[4-[4-(aminomethyl)-8-methyl-1-oxo-2H-phthalazin-6-yl]-2-methyl-pyrazol-3-yl]-3-chloro-7-fluoro-quinoline-5-carbonitrile]
IC50 (PRMT5/MEP50 complex): 166 nM
IC50 [1]: 80 nM

Cn1ncc(-c2ccc3c(=O)[nH]nc(CN)c3c2)c1-c1c(F)cc2ncc(Cl)cc2c1C#N (single isomer, unassigned) [Example 16-31, (M)-6-[4-[4-(aminomethyl)-1-oxo-2H-phthalazin-6-yl]-2-methyl-pyrazol-3-yl]-3-chloro-7-fluoro-quinoline-5-carbonitrile]
IC50 (PRMT5/MEP50 complex): 19.3 nM
IC50 [1]: 16 nM

Cc1cc(-c2c(-c3ccc4c(=O)[nH]nc(CN)c4c3)cnn2C)n2c1CCCC2=O [Example 4-257, 4-(aminomethyl)-6-[1-methyl-5-(1-methyl-5-oxo-7,8-dihydro-6H-indolizin-3-yl)pyrazol-4-yl]-2H-phthalazin-1-one]
IC50 (PRMT5/MEP50 complex): 547 nM
IC50 ([1]; Homo sapiens, HCT-116, 240 h): 618 nM

Cc1sc(-c2c(-c3ccc4c(=O)[nH]nc(CN)c4c3)cnn2C)c(C#N)c1OC1CC1 [Example 4-276, 2-(4-(4-(aminomethyl)-1-oxo-1,2-dihydrophthalazin-6-yl)-1-methyl-1H-pyrazol-5-yl)-4-cyclopropoxy-5-methylthiophene-3-carbonitrile]
IC50 (PRMT5/MEP50 complex): 222 nM
IC50 ([1]; Homo sapiens, HCT-116, 240 h): 198 nM
